Assay results reported in patent US20190086390A1, “INDIRECT ASSESSMENT OF INSULIN RELEASE IN A CELL” (Board of Supervisors of Louisiana State University and …, priority 2016, published 2019).
Entries after “also recorded” stand apart in the source; their conditions may differ.

Legend:
Type in all cases: cell-based, rat
iNOS = iNOS mRNA (RT-PCR) and protein (immunoblot) abundance in 832/13 cells; conditions: 832/13 cells exposed to IL-1β
Description: RNA isolation from cell lines and rat islets, cDNA synthesis, and analysis of real-time RT-PCR data has been described in detail previously (12). For all transcripts studied, the relative mRNA abundance was normalized to that of the housekeeping gene ribosomal S9. Primers used to detect transcript levels of ribosomal S9, iNOS, IL-1, and Nkx6.1 were designed using Primer3Plus software and are available upon request.
(§1) Cell lysis and extraction of cytoplasmic and nuclear protein fractions was performed using the NE-PER kit (Thermo Fisher Scientific) according to the manufacturer's directions. The protein concentration of the lysate was determined using the bicinchoninic acid assay (Thermo Fisher Scientific), using BSA as the standard. SDS-PAGE, transfer to polyvi-nylidene difluoride membranes, membrane blocking before antibody incubation, and downstream subsequent detection using a ChemiDoc imaging system (Bio-Rad) have been described previously (16). Antibodies detecting β-actin or tubulin were used as loading controls. Antibodies used were from the following sources: iNOS (Santa Cruz Biotechnology), (3-actin (Cell Signaling Technology), Ikα: (Santa Cruz Biotechnology), tubulin (Cell Signaling Technology), and Pdx-1 (Cell Signaling Technology). The antibody recognizing Nkx6.1 has been described (34). Immunoblot images were quantified using Image Lab software (Bio-Rad).

832/13 cells [1] = experiment: Tritiated thymidine incorporation into DNA (proliferation); conditions: IL-1β 18 h
Experimental: 832/13 cells were grown in 12-well plates and treated as indicated. Glucose-stimulated insulin secretion (GSIS) assays were performed as described previously (29). Insulin secretion by cell lines into the media was measured using either the High Range Rat Insulin ELISA kit (Mercodia, Uppsala, Sweden) or by rat islets using the insulin radioimmunoassay (Siemens, Malvern, Pa.) according to the company directions. In addition, cells were lysed using M-PER lysis reagent (Thermo Fisher Scientific) to quantify total intracellular protein content via BCA assay (Thermo Fisher Scientific). Insulin secretion data were normalized to total protein to account for any differences in cell number between treatment groups. Incorporation of tritiated thymidine into DNA as a cellular index of proliferation was carried out as described (45).

832/13 cells [2] = experiment: MTS dye reduction assay; conditions: 1 ng/ml IL-1β, 18 h
Experimental: (§2) Nitrite in the cell culture media was measured as an index of NO production using the Griess assay kit (Promega, Madison, Wis.), whereas cellular reduction of the 3-(4,5-dimethylthiazol-2-yl)-5-(3-carboxymethoxyphenyl)-2-(4-sulfophe-nyl)-2H-tetrazohum, inner salt (MTS) dye was determined using the MTS 1 solution kit (Promega) according to the manufacturer's protocol.

Nkx6.1 = Nkx6.1 protein abundance, immunoblot of cytosolic and nuclear fractions; conditions: 832/13 cells, IL-1β 4 h
Experimental: as §1

832/13 cells [3] = experiment: Nitrite accumulation in culture media, Griess assay; conditions: IL-1β
Experimental: as §2

CCL2 = CCL2 secretion into media of 832/13 cells, ELISA
Experimental: 832/13 cells were grown in 12-well plates and treated as indicated. RPMI was supplemented with 0.3% BSA, and media were collected at the indicated time points. In addition, the cells were lysed using M-PER lysis reagent (Thermo Fisher Scientific) to quantify total intracellular protein content. CCL2 and CCL20 secretion into the media was measured by CCL2 Quantikine ELISA kit (R & D Systems, Minneapolis, Minn.) and CCL20 DuoSet ELISA kit (R & D Systems) according to the manufacturer's protocol. ELISA data were normalized to total protein to account for any differences in cell number between treatment groups.

832/13 cells [4] = experiment: Live cell calcium imaging, glucose-induced calcium response (Calcium Green)
Experimental: 832/13 cells were plated into six-well plates containing poly-d-lysine-coated coverslips (Neuvitro, Vancouver, Wash.). At 50% confluence, cells were treated for 18 h with one of four experimental groups: 1 ng/ml […] alone, 1 mM I-NMMA alone, IL-1β+ I-NMMA, or normal growth media. Immediately prior to imaging, cells were preloaded with Calcium Green 1 AM (CG, C3012; Life Technologies) by transferring coverslips to a solution of 10|×M CG in 20% Pluronic F127 in DMSO (Life Technologies) made up in carbogenated (95% 02-5% C02) normal Krebs. The recipe for normal Krebs solution was (in mM) 124 NaCl, 25 NaHC03, 2 glucose, 3 KC1, 2 CaCl2, 1.5 NaH2P04, and 1 MgS04-7H20, which corrected to pH 7.4 with HCl. After incubation in the CG solution for 30 min, coverslips were transferred to carbogenated normal Krebs at 29° C.
Coverslips were transferred to a recording chamber on a fixed stage Zeiss Axioskop2 microscope equipped with a Perkin Elmer Ultra-view/Yokogawa C10 spinning disk laser confocal illuminator. Cells were illuminated with the 488 nm laser; CG-calcium fluorescence signals were collected at 509 nm. Cells were visualized with a X40 water immersion objective. Images were collected with a Hammamatsu Ocra-ER charge-coupled device camera. The confocal system, including image collection, was controlled by Perkin-Elmer Improvision software.
Cells on coverslips were constantly perfused with normal Krebs solution at 29° C. at a rate of 3 ml/min. After 10 min, the perfusion solution was switched to one containing 12 mM glucose and proportionally less sodium chloride to maintain osmolality. The 12 mM glucose challenge was applied for 5 min, followed by a 5 min washout period. Images of CG-labeled cells were collected continuously during the challenge period at a rate of 20/min, with each frame taking 1 s. Images were collected as TIFF stacks and processed using Nikon Elements AR software. Individual cells in the field were designated as regions of interest (ROI), and their fluorescence signal over time was captured. Background fluorescence was subtracted from the fluorescence signal of individual ROIs. The relative changes in cytoplasmic calcium in the cells were expressed as changes in fluorescence [(AF/F) %], where F is the intensity of the baseline fluorescence signal before stimulation and AF is the difference between the peak fluorescence intensity and the baseline signal. Therefore, magnitude of response was normalized for each individual ROI.

[5] = pretreated 18 h with IL-1β alone, 12 mM glucose

## IL-1β: proinflammatory cytokine purchased from Thermo Fisher Scientific, used at 1 ng/ml
iNOS
  iNOS expression (transcript and protein): rapidly induced; also recorded: accumulates; also recorded: robust iNOS abundance
832/13 cells [1]
  ability to incorporate thymidine into DNA: reduced markedly
832/13 cells [2]
  decrease in reduction of the MTS dye: 38%
Nkx6.1
  decrease in Nkx6.1 abundance: 47%
832/13 cells [3]; 6 h
  increase in nitrite accrual: 5.5 fold
832/13 cells [3]; time not given, associated with 54% diminution in GSIS
  increase in nitrite: 13 fold
CCL2; 832/13 cells, 1 ng/ml IL-1β
  expression and secretion of CCL2 in response to IL-1β: markedly elevated; also recorded: strongly induced
CCL2; IL-1β
  time to chemokine secretion after cellular exposure: 3 to 6 h
CCL2; glucose 2, 4, 8 or 16 mM, IL-1β 6 h
  IL-1β-induced secretion of CCL2 over a range of glucose concentrations: not different
832/13 cells [4]; [5]
  average response magnitude (change in fluorescence): 20%
  cells responding to the glucose challenge: 61%
832/13 cells [4]; pretreated with IL-1β alone
  reduction of responses relative to control group: 39%
